Results: patent publication US10646469B2, “Substituted indole derivatives as dengue viral replication inhibitors” (Janssen Pharmaceuticals, Inc., priority 2016, dated 2020)

Tests used:
[1] = test system: DENV-2 16681 strain; assay: DENV-2 antiviral assay (eGFP-labeled virus in Vero cells); assay type: cell-based, Dengue virus; details: DENV-2 16681 eGFP, MOI 0.5, 3 days
Description: The antiviral activity of all the compounds of the invention was tested against the DENV-2 16681 strain which was labeled with enhanced green fluorescent protein (eGPF). The culture medium consists of minimal essential medium supplemented with 2% of heat-inactivated fetal calf serum, 0.04% gentamycin (50 mg/mL) and 2 mM of L-glutamine. Vero cells, obtained from ECACC, were suspended in culture medium and 25 μL was added to 384-well plates (2500 cells/well), which already contain the antiviral compounds. Typically, these plates contain a 5-fold serial dilution of 9 dilution steps of the test compound at 200 times the final concentration in 100% DMSO (200 nL). […] Finally, each plate contains wells which are assigned as virus controls (containing cells and virus in the absence of compound), cell controls (containing cells in the absence of virus and compound) and medium controls (containing medium in the absence of cells, virus and compounds). To the wells assigned as medium control, 25 μL of culture medium was added instead of Vero cells. Once the cells were added to the plates, the plates were incubated for 30 minutes at room temperature to allow the cells to distribute evenly within the wells. Next, the plates were incubated in a fully humidified incubator (37° C., 5% CO2) until the next day. Then, DENV-2 strain 16681, labeled with eGFP, was added at a multiplicity of infection (MOI) of 0.5. Therefore, 15 μL of virus suspension was added to all the wells containing test compound and to the wells assigned as virus control. In parallel, 15 μL of culture medium was added to the medium and cell controls. Next, the plates were incubated for 3 days in a fully humidified incubator (37° C., 5% CO2). At the day of the read out, the eGFP fluorescence was measured using an automated fluorescence microscope at 488 nm (blue laser). Using an in-house LIMS system, inhibition dose response curves for each compound were calculated and the half maximal effective concentration (EC50) was determined. Therefore, the percent inhibition (I) for every test concentration is calculated using the following formula: I=100*([…])/(SVC−SCC); ST, SCC and SVC are the amount of eGFP signal in the test compound, cell control and virus control wells, respectively. The EC50 represents the concentration of a compound at which the virus replication is inhibited with 50%, as measured by a 50% reduction of the eGFP fluorescent intensity compared to the virus control. The EC50 is calculated using linear interpolation (Table 1).

[2] = test system: DENV-1 strain TC974 #666; assay: Tetravalent RT-qPCR assay, serotype 1; assay type: cell-based; details: Dengue virus, DENV1, 72 h; RT-qPCR serotype 1 TC974#666, Protocol A, Vero cells, day 3
Description: (§1) The antiviral activity of the compounds of the invention was tested against DENV-1 strain TC974 #666 (NCPV), DENV-2 strain 16681, DENV-3 strain H87 (NCPV) and DENV-4 strain H241 (NCPV) in a RT-qPCR assay. Therefore, Vero cells were infected with either DENV-1, or -2, or -3, or -4 in the presence or absence of test compounds. At day 3 post-infection, the cells were lysed and cell lysates were used to prepare cDNA of both a viral target (the 3′UTR of DENV; Table 2) and cellular reference gene (β-actin, Table 2). Subsequently, a duplex real time PCR was performed on a Lightcycler480 instrument. The generated Cp value is inversely proportional to the amount of RNA expression of these targets. Inhibition of DENV replication by a test compound results in a shift of Cp's for the 3′UTR gene. On the other hand, if a test compound is toxic to the cells, a similar effect on β-actin expression will be observed. The comparative ΔΔCp method is used to calculate EC50, which is based on the relative gene expression of the target gene (3′UTR) normalized with the cellular housekeeping gene (β-actin). In addition, CC50 values are determined based on the Cp values acquired for the housekeeping gene β-actin.
(§2) The culture medium consisted of minimal essential medium supplemented with 2% of heat-inactivated fetal calf serum, 0.04% gentamycin (50 mg/mL) and 2 mM of L-glutamine. Vero cells, obtained from ECACC, were suspended in culture medium and 75 μL/well was added in 96-well plates (10000 cells/well), which already contain the antiviral compounds. […] In addition, each plate contains wells which are assigned as virus controls (containing cells and virus in the absence of compound) and cell controls (containing cells in the absence of virus and compound). Once the cells were added in the plates, the plates were incubated in a fully humidified incubator (37° C., 5% CO2) until the next day. Dengue viruses serotype-1, 2, 3 and 4 were diluted in order to obtain a Cp of ˜22-24 in the assay. Therefore, 25 μL of virus suspension was added to all the wells containing test compound and to the wells assigned as virus control. In parallel, 25 μL of culture medium was added to the cell controls. Next, the plates were incubated for 3 days in a fully humidified incubator (37° C., 5% CO2). After 3 days, the supernatant was removed from the wells and the cells were washed twice with ice-cold PBS (˜100 μL). The cell pellets within the 96-well plates were stored at −80° C. for at least 1 day. Next, RNA was extracted using the Cells-to-CT™ lysis kit, according to the manufacturer's guideline (Life Technologies). The cell lysates can be stored at −80° C. or immediately used in the reverse transcription step.
(§3) In preparation of the reverse transcription step, mix A (table 3A) was prepared and 7.57 μL/well was dispensed in a 96-well plate. After addition of 5 μL of the cell lysates, a five minute denaturation step at 75° C. was performed (table 3B). Afterwards, 7.43 μL of mix B was added (table 3C) and the reverse transcription step was initiated (table 3D) to generate cDNA.
(§4) Finally, a RT-qPCR mix was prepared, mix C (table 4A), and 22.02 μL/well was dispensed in 96-well LightCycler qPCR plates to which 3 μL of cDNA was added and the qPCR was performed according to the conditions in table 4B on a LightCycler 480.
(§5) Using the LightCycler software and an in-house LIMS system, dose response curves for each compound were calculated and the half maximal effective concentration (EC50) and the half maximal cytotoxic concentration (CC50) were determined (Tables 5-8).

[3] = test system: DENV-2 strain 16681; assay: Tetravalent RT-qPCR assay, serotype 2; assay type: cell-based; details: Dengue virus, DENV2, 72 h; RT-qPCR serotype 2 16681, Protocol A, Vero cells, day 3
Description: as §1, §2, §3, §4, §5

[4] = test system: DENV-3 strain H87; assay: Tetravalent RT-qPCR assay, serotype 3; assay type: cell-based; details: Dengue virus, DENV3, 72 h; RT-qPCR serotype 3 H87, Protocol A, Vero cells, day 3
Description: as §1, §2, §3, §4, §5

[5] = test system: DENV-4 strain H241; assay: Tetravalent RT-qPCR assay, serotype 4; assay type: cell-based; details: Dengue virus, DENV4, 72 h; RT-qPCR serotype 4 H241, Protocol A, Vero cells, day 3
Description: as §1, §2, §3, §4, §5

[6] = Cytotoxicity in RT-qPCR assay (Cp of housekeeping gene β-actin); assay type: cell-based; details: African green monkey
Description: as §1, §2, §5

[7] = test system: Vero cells; assay: Toxicity on the same plates (ATPlite cell viability); details: Vero cells, same plates as DENV-2 antiviral assay
[8] = RT-qPCR serotype 1 TC974#666, Protocol A
[9] = RT-qPCR serotype 2 16681, Protocol A
[10] = RT-qPCR serotype 3 H87, Protocol A
[11] = RT-qPCR serotype 4 H241, Protocol A

SMILES | EC50 [1] [µM] | EC50 [2] [µM] | EC50 [3] [µM] | EC50 [4] [µM] | EC50 [5] [µM] | CC50 at 3 days [6, 8] [µM] | CC50 at 3 days [6, 9] [µM] | CC50 at 3 days [6, 10] [µM] | CC50 at 3 days [6, 11] [µM] | CC50 [7] [µM]
COc1cc(NC(C(=O)c2c[nH]c3c(C)cc(OC(F)(F)F)cc23)c2ccc(F)cc2OC)cc(OCCO)c1 (single isomer, unassigned) [Compound 8A, 2-(4-fluoro-2-methoxyphenyl)-2-((3-(2-hydroxyethoxy)-5-methoxyphenyl)amino)-1-(7-methyl-5-(trifluoromethoxy)-1H-indol-3-yl)ethanone] | 0.00035 | 0.00071 | 0.00031 | 0.0058 | 0.048 | 2.1 | 3.7 | > 2.4 | 2.6 | 2.9
COc1cc(NC(C(=O)c2c[nH]c3c(C)cc(C(F)(F)F)cc23)c2ccc(Cl)cc2OC)cc(OCCO)c1 (single isomer, unassigned) [Compound 12A, 2-(4-chloro-2-methoxyphenyl)-2-((3-(2-hydroxyethoxy)-5-methoxyphenyl)amino)-1-(7-methyl-5-(trifluoromethyl)-1H-indol-3-yl)ethanone] | 0.00016 | 0.0004 | 0.00022 | 0.0039 | 0.03 | > 2.5 | > 2.5 | > 2.5 | > 2.4 | 2.6
COc1cc(NC(C(=O)c2c[nH]c3cc(F)c(OC(F)(F)F)cc23)c2ccc(Cl)cc2OC)cc(OCCO)c1 (single isomer, unassigned) [Compound 15B, 2-(4-chloro-2-methoxyphenyl)-1-(6-fluoro-5-(trifluoromethoxy)-1H-indol-3-yl)-2-((3-(2-hydroxyethoxy)-5-methoxyphenyl)amino)ethanone] | 0.00029 | 0.00046 | 0.00015 | 0.0032 | 0.031 | 1.5 | > 2.1 | > 2.4 | 1.6 | 2.6
COc1cc(NC(C(=O)c2c[nH]c3ccc(C(F)(F)F)cc23)c2ccc(Cl)cc2OC)cc(OCCO)c1 (single isomer, unassigned) [Compound 9B, 2-(4-chloro-2-methoxyphenyl)-2-((3-(2-hydroxyethoxy)-5-methoxyphenyl)amino)-1-(5-(trifluoromethyl)-1H-indol-3-yl)ethanone] | 0.00018 | 0.00088 | 0.00027 | 0.0063 | 0.05 | > 2 | 3.4 | > 2.5 | 2.7 | 3.3
COc1cc(NC(C(=O)c2c[nH]c3ccc(C(F)(F)F)cc23)c2ccc(F)cc2OC)cc(OCCO)c1 (single isomer, unassigned) [Compound 1B, 2-(4-fluoro-2-methoxyphenyl)-2-((3-(2-hydroxyethoxy)-5-methoxyphenyl)amino)-1-(5-(trifluoromethyl)-1H-indol-3-yl)ethanone] | 0.00062 | 0.0013 | 0.00041 | 0.014 | 0.05 | 3.3 | 3.5 | 3.2 | 2.6 | 
COc1cc(NC(C(=O)c2c[nH]c3ccc(OC(F)(F)F)cc23)c2ccc(Cl)cc2OC)cc(OCCO)c1 (single isomer, unassigned) [Compound 13A, 2-(4-chloro-2-methoxyphenyl)-2-((3-(2-hydroxyethoxy)-5-methoxyphenyl)amino)-1-(5-(trifluoromethoxy)-1H-indol-3-yl)ethanone] | 0.00014 | 0.00051 | 0.0002 | 0.0035 | 0.02 | 1.2 | 2.6 | > 2.5 | > 2.5 | 
